One series has as its system A549 cells. Kind of series: Cell number (CyQuant) after culture in 10% serum from mice orally administered 300 mg/Kg drug, A549. It counts as cell-based, human. The note with it: A549, 72 h. The method, then: (§1) The plates were incubated for 72 h at 37° C. and the relative cell number per well was determined using the CyQuant® reagent. Fluorescence was measured using a Molecular Devices plate reader. […] Serum from five animals was pooled, mixed with culture medium at a concentration of 10% and cells incubated for 72 hours. Cell number was then determined using the CyQuant® assay. […] Differences in cell number for cells cultured in 10% serum was compared by t-test. P values are: A427, p=0.009; A549, p=0.133; and […], p=0.744.

Series [1] in a line: Metabolite profiling of NDGA in plasma after oral administration in male CD-1 mice (LC-HRAMS, semi-quantitative). It counts as in vivo. The method, then: The dosing solution was prepared at a nominal concentration of 20 mg/mL; detailed description is shown in Appendix I. The actual concentration, established using HPLC-MS, was 84.9% of nominal (+/−8.9%) and was within the acceptable range according to the study protocol. Animal dosing and blood collection were performed according to the study protocol; details are shown in Appendix II. […] Plasma samples were prepared from blood according to the study protocol. Aliquots of the stabilized (with ascorbic acid) plasma samples were treated with MeCN (1:3 ratio) containing a mixture of internal standards (metoprolol, propranolol, and warfarin, each at 500 ng/mL) for protein precipitation. After centrifugation, clear supernatants were analyzed directly using LC-High Resolution Accurate Mass Spectrometry (HRAMS) as described below.
The samples were separated using HPLC, and two stationary phases were evaluated: ACE pentaflurophenyl C18 (Phenomenex) and dC18 (Waters). […]
Following the pre-scan, the FT analyzer is set to perform a slow survey scan at high resolution (HRMS). […] The decision event selects the two most intense ions detected in the pre-scan which are on the parent mass list. […]
1) Subtraction of the chromatogram of a control sample (solvent control in blank matrix) from the analyzed sample, leading to creation of a “SUB” file (Appendix II). […]

Series [2] is described as follows: Solubility of NDGA in intestinal fluids. It counts as physicochemical. The note with it: fassgf or other biorelevant.
Series [3] is described as follows: Exposure (plasma concentration by LC-MS/MS) of NDGA after oral administration in male CD-1 mice at 100 mg/kg. It counts as in vivo. The note with it: for concentration at 0.167 h / concentration at 0.5 h / concentration at 2 h / concentration at 4 h: male, CD-1, mouse, plasma, po, 100 mg/kg, PO 100 mg/kg; for concentration at 0.167 h: time point 0.167 hr; for concentration at 0.5 h: time point 0.50 hr; for concentration at 2 h: time point 2.0 hr; for concentration at 4 h: time point 4.0 hr. The method, then:
Test compound was dosed at 100 mg/kg from 0.5% MC and 0.5% NaCMC in DI water in separate groups. Analytical stock solutions (1 mg/mL of the free drug) were prepared in DMSO. Standards were made from independently prepared stock solutions of the test compound. Standards and QCs were prepared in male CD-1 mouse plasma containing K2EDTA as an anticoagulant with 10% of 0.1M ascorbic acid in water. Standards were prepared at concentrations of 1000, 500, 100, 50, 10, 5, 1, and 0.5 ng/mL by serial dilution. Standards were treated identically to the study samples. Plasma samples were manually extracted using acetonitrile precipitation. All samples were thawed on ice, and kept on ice during preparation. […] [table] • Flow Rate: 300 μL/min • Injection Volume: 10 μL • Run Time: 4.5 min • Temperature: ambient • Autosampler Wash: #1: 1:1:1 (v:v:v) water:acetonitrile:isopropanol with 0.2% formic acid • #2: 50:50 (v:v) methanol:water [table] […] All data are expressed as ng/mL of the free drug. Samples that were below the limit of quantitation were not used in the calculation of averages. Plasma concentrations versus time data are plotted in FIGS. 24 and 25.

The nature of series [4]: In vitro stability of NDGA in freshly drawn whole blood of CD-1 mice. It counts as in vitro ADME. The note with it: CD-1 mouse whole blood. The method, then: The aliquots were treated with MeCN (1:3 ratio) containing a mixture of internal standards (metoprolol, propranolol, and warfarin, each at 500 ng/mL) for protein precipitation. After centrifugation, supernatants were analyzed directly using LC-HRAMS as described below.

A further series deals with H1975, A427, A549 cells. Kind of series: Cell survival/proliferation (CyQuant) of NSCLC cell lines in 10% serum from untreated mice spiked with drug. It counts as cell-based, human. The note with it: 72 h. The method, then:
The CyQuant™ assay (Invitrogen) may be used to differentiate antioxidant activity from anti-proliferative activity. Briefly, the assay is based on dye fluorescence enhancement upon binding to cellular nucleic acids. Cells are lysed by addition of a buffer containing the CyQUANT™-GR dye; there are no washing steps, growth medium changes or long incubations. The resulting fluorescence is proportional to the number of cells in the sample and is measured directly using the TD-700 fluorometer equipped with a fluorescein filter kit. The CyQUANT™ assay can detect much lower cell numbers than Neutral Red or methylene blue assays. […] Thus, cells can be frozen prior to assaying; time course assays are facile and data obtained from samples taken at widely different time intervals can be directly compared. […] Cell number differences were measured using the CyQuant® assay (Invitrogen). H1975, A427, A549 cells were seeded at 1×10^4 cells/well in a 96 well plate and incubated overnight at 37° C. […] The plates were incubated for 72 h at 37° C. and the relative cell number per well was determined using the CyQuant® reagent. Fluorescence was measured using a Molecular Devices plate reader.

A further series deals with A427 cells. Kind of series: Cell number (CyQuant) after culture in 10% serum from mice orally administered 300 mg/Kg drug, A427. It counts as cell-based, human. The note with it: A427, 72 h. The procedure:
as §1

Where [5] appears, read: 0.5% MC in DI water, group average.
The mark [6] stands for this setting: 0.5% MC in DI water, group average, read-out: Average plasma concentration.
Where [7] appears, read: 0.5% NaCMC in DI water, group average.
Where [8] appears, read: 0.5% NaCMC in DI water, group average, read-out: Average plasma concentration.

Each structure is given as a SMILES string. Values after ≈ are worked out from the molar mass of the structure shown. Read-outs that look alike come from different tables or passages of the source. Some results are limits rather than exact numbers.

The solubility is how much of the substance goes into solution per volume. High values mean a readily soluble substance, low ones a poorly soluble substance. As to `CC(Cc1ccc(O)c(O)c1)C(C)Cc1ccc(O)c(O)c1` (stereo not shown) [NDGA, nordihydroguaiaretic acid], the “Number of cells after culture in 10% serum from treated mice (in words)” value is given as “not significant at the 0.05 level” with A549 cells and “decrease was statistically significant” in the series with A427 cells. In addition, in series [1] (male CD-1 mice, 300 mg/kg PO, 0.5% NaCMC in water), the “Adverse effects in the dosed animals” value was “No adverse effects were observed”. In addition, in series [1] (mouse plasma, 300 mg/kg PO NDGA, trapezoidal approximation, 5-240 min), the AUC was found to be 28.5 peak area ratio* min. The molecule further gave a solubility in series [2] of around 8 µg/mL (≈ 26.5 µM). Besides, the “Observations and adverse reactions” value in series [3] (100 mg/kg PO, one mouse (#187) died ~5 min after 30 min sample, possibly stress) is recorded as “No other adverse effects were observed”. Further, the concentration at 0.167 h was 43.4 ng/mL in series [3] (setting [5]) and 70.8 ng/mL in series [3] (setting [7]). Further, the concentration at 0.5 h in series [3] (setting [6]) came to 44.2 ng/mL; in series [3] (setting [8]), 49.6 ng/mL; in series [3] (0.5% NaCMC in DI water, individual mice #183-187, read-out: Individual plasma concentration Conc.), 40.9 ng/mL. The concentration at 2 h in series [3] (setting [5]) was 3.08 ng/mL; in series [3] (setting [7]), 1.83 ng/mL. In addition, the concentration at 4 h was found to be 3.19 ng/mL in series [3] (setting [6]); 2.75 ng/mL in series [3] (setting [8]); 3.24 ng/mL in series [3] (0.5% NaCMC in DI water, individual mice #183-186, read-out: Individual plasma concentration Conc.). The “Stability of NDGA in whole blood” value in series [4] (time 0 minutes) came to 100; in series [4] (time 15 minutes) it was 7.2. Moreover, in series [4] (up to 60 minutes), the “Putative metabolites detected upon incubation in whole blood in vitro” value is “No putative metabolites were detected”. For the same molecule, in series [4] (possibly impacted by poor recovery), the “Stability in whole blood sample (in words)” value is “appears to be unstable”. The Concentration above which reduced cell proliferation was observed in the series with H1975, A427, A549 cells (10% mouse serum spiked with drug) was above 10 µM. The Cell number reduced with H1975, A427, A549 cells (maximum concentration tested, 10% mouse serum, all cell lines averaged) is recorded as 33%.

For the origin of these results see patent US9834575B2, “Cancer therapy” (TriAct Therapeutics, Inc., priority 2013, dated 2017).
